Measured values published in patent US20250144030A1, “OSMOTIC PUMP CONTROLLED-RELEASE TABLET OF INSOLUBLE DRUG AND PREPARATION METHOD THEREFOR” (BEIJING WEHAND-BIO PHARMACEUTICAL CO., LTD, priority 2021, published 2025).
Where a name gives a salt, the structure may show the parent alone. Read-outs that look alike come from different tables or passages of the source.

Experiment: Determination of solubility of Nic drug and solid dispersions
Type: physicochemical
Conditions: for solubility at 2 h: 37 °C, thermodynamic from solid
Description: After the drug was dissolved, an equivalent dose of the solid dispersion powder was further added, and oscillated for 2 h. The above operations were repeated until an insoluble solid occurred in the solution.

Row | Compound | solubility at 2 h (saturated citric acid solution, aqueous buffer, saturated citric acid solution, read-out: Solubility of Saturated Citric Acid Solution mg/ml (37° C.)) | solubility at 2 h (water, water, water, read-out: Solubility in Water mg/ml (37° C.)) | Solubility of Saturated Citric Acid Solution mg/ml (37° C.) (saturated citric acid solution, hydrochloride) | Solubility in Water mg/ml (37° C.) (water, hydrochloride)
1 | COC(=O)C1=C(C)NC(C)=C(C(=O)OCCN(C)Cc2ccccc2)C1c1cccc([N+](=O)[O-])c1 (stereo not drawn) [α-Form Nic, nicardipine hydrochloride] | 46 mg/mL | 7.2 mg/mL | – | –
2 | COC(=O)C1=C(C)NC(C)=C(C(=O)OCCN(C)Cc2ccccc2)C1c1cccc([N+](=O)[O-])c1 (stereo not drawn) [β-Form Nic, nicardipine hydrochloride] | – | – | 50 mg/mL | 11 mg/mL
